Experimental data published in patent US20110124888A1, “STYRYLBENZOFURAN DERIVATIVES AS INHIBITORS FOR BETA-AMYLOID FIBRIL FORMATION AND PREPARATION METHOD THEREOF” (Korea Institute of Science and Technology, priority 2008, published 2011).
Counter-ions that a name gives are not always drawn. Like-named read-outs stand apart in the source and are kept apart here.

Target: T1, beta-amyloid 42 (Aβ42) (Homo sapiens, UniProt P05067)
T1 construct: Beta-amyloid 42 (Aβ42) was dissolved in dimethylsulfoxide (DMSO)
Test: Inhibitory effect on the formation of beta-amyloid fibrils in vitro (ThT fluorescence assay)
Assay type: biochemical
Conditions: for IC50: In vitro ThT analysis (Aβ42: 25 μM); for inhibition at 10 µM: 10 μM compound, Aβ42 25 μM, read-out: % Inhibition (10 μM); for % inhibition against the beta-amyloid 42 formation compared with curcumin: Tables 1 to 6, relative to curcumin
Procedure: In order to investigate the inhibitory effect on the formation of beta-amyloid fibrils, the inventive compounds were examined as follows:
Beta-amyloid 42 (Aβ42) was dissolved in dimethylsulfoxide (DMSO) to form a […] Aβ42 stock solution. In addition, ThT (thioflavin T) was dissolved in distilled water to a concentration of 1 mM and subsequently diluted with 50 mM glycin buffer (pH 8.5) to yield a 5 μM ThT stock solution.
45 μL of PBS (phosphate buffer saline, pH 7.4) was added to each of a 96 well fluorescence microplate (white, F-bottom). 5 μL of the 250 μM Aβ42 stock solution was added to each well. The final concentration of each compound obtained in Examples was in a range of 10 to 0.001 μM by adding 2 μL of a solution, which is prepared by dissolving the subject compounds obtained in Examples in DMSO, to each well. At this time, the final concentration of Aβ42 in each well was 25 μM. The plate was then incubated at room temperature for 1 hr, and 150 μL of the 5 μM ThT stock solution was added to each well.
The fluorescence intensity of each well was determined with the multi label fluorescence counter (LS-55 Luminescence spectrometer, Perkin Elmer) at an excitation wavelength of 450 nm (excitation slit width: 10 nm) and an emission wavelength of 482 nm (emission slit width: 10 nm), while adjusting counting time to 1 second. The control group was prepared by adding PBS solution, Aβ42 and DMSO, without adding the inventive compound. % Inhibition on the formation of beta-amyloid fibrils was calculated in accordance with the following equation and IC5O was calculated by using GraphPad Prism version 4.03 Program.
% Inhibition=[1−(C−D)/(A−B)]×100 Equation 1%
A (control group): fluorescence intensity in a group treated with PBS solution, Aβ42, and DMSO
B (blank): fluorescence intensity in a group treated with PBS solution and DMSO
C (experimental group): fluorescence intensity in a group treated with PBS solution, Aβ42, DMSO, and the inventive compound
D (compensation value to the experimental group): fluorescence intensity in a group treated with PBS solution, DMSO, and the inventive compound

T1 sequence (P05067 672-713 limits assumed): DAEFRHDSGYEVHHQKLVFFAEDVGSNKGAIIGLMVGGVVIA

Structure (SMILES): CN(C)c1ccc(C=Cc2cc3cc(F)ccc3o2)cc1 [Compound 5, 5-fluoro-2-(4-dimethylaminostyryl)benzofuran]
- IC50 (experiment of Table 1): 1980 nM

Structure (SMILES): CNc1ccc(C=Cc2cc3cc(I)ccc3o2)cc1OC [Compound 48, 5-iodo-2-(3-methoxy-4-methylaminostyryl)benzofuran]
- inhibition at 10 µM (experiment of Table 6): 74.2%
- IC50 (experiment of Table 6): 1050 nM
- % inhibition against the beta-amyloid 42 formation compared with curcumin: superior % inhibition

Structure (SMILES): COc1ccc(C=Cc2cc3ccc(C)cc3o2)cc1OC [Compound 65, 6-methyl-2-(3,4-dimethoxystyryl)benzofuran]
- inhibition at 10 µM (experiment of Table 5): 67.5%
- IC50 (experiment of Table 5): 884 nM
- % inhibition against the beta-amyloid 42 formation compared with curcumin: superior % inhibition

Structure (SMILES): CN(C)c1ccc(/C=C/c2nc3ccccc3s2)cc1 [Comparative Example 2, 2-(4-dimethylaminophenylethenyl)benzothiazole, reference compound]
- inhibition at 10 µM (experiment of Table 7): 25.7%
- IC50 (experiment of Table 7): 31800 nM

Structure (SMILES): COc1ccc2oc(C=Cc3ccc(N)cc3)cc2c1 [Compound 16, 5-methoxy-2-(4-aminostyryl)benzofuran]
- IC50 (experiment of Table 1): 820 nM

Structure (SMILES): Nc1ccc(C=Cc2cc3ccc(O)cc3o2)cc1 [Compound 67, 6-hydroxy-2-(4-aminostyryl)benzofuran]
- inhibition at 10 µM (experiment of Table 5): 60.2%

Structure (SMILES): CNc1ccc(C=Cc2cc3cc(OC)c(OC)cc3o2)cc1 [Compound 70, 5,6-dimethoxy-2-(4-methylaminostyryl)benzofuran]
- inhibition at 10 µM (experiment of Table 5): 25.8%

Structure (SMILES): CNc1ccc(C=Cc2cc3ccc(O)cc3o2)cc1 [Compound 68, 6-hydroxy-2-(4-methylaminostyryl)benzofuran]
- inhibition at 10 µM (experiment of Table 5): 61.9%

Structure (SMILES): CNc1ccc(C=Cc2cc3ccc(OCCOCCOCCF)cc3o2)cc1 [Compound 66, 6-(2-(2-(2-fluoroethoxy)ethoxy)ethoxy)-2-(4-methylaminostyryl)benzofuran]
- inhibition at 10 µM (experiment of Table 5): 61.7%

Structure (SMILES): COc1ccc2cc(C=Cc3ccc(N(C)C)c(OC)c3)oc2c1 [Compound 23, 6-methoxy-2-(3-methoxy-4-dimethylaminostyryl)benzofuran]
- IC50 (experiment of Table 1): 528 nM
- % inhibition against the beta-amyloid 42 formation compared with curcumin: superior % inhibition

Structure (SMILES): CNc1ccc(C=Cc2cc3cc(O)ccc3o2)cc1 [Compound 19, 5-hydroxy-2-(4-methylaminostyryl)benzofuran hydrochloride]
- IC50 (experiment of Table 1): 2160 nM

Structure (SMILES): COc1ccc(C=Cc2cc3cc(I)ccc3o2)cc1 [Compound 49, 5-iodo-2-(4-methoxystyryl)benzofuran]
- inhibition at 10 µM (experiment of Table 4): 38%
- IC50 (experiment of Table 4): 16800 nM

Structure (SMILES): Nc1ccc(C=Cc2cc3cc(O)ccc3o2)cc1 [Compound 18, 5-hydroxy-2-(4-aminostyryl)benzofuran hydrochloride]
- IC50 (experiment of Table 1): 2950 nM

Structure (SMILES): CNc1ccc(C=Cc2cc3cc(OC)ccc3o2)cc1OC [Compound 36, 5-methoxy-2-(3-methoxy-4-methylaminostyryl)benzofuran]
- inhibition at 10 µM (experiment of Table 5): 24.5%

Structure (SMILES): CNc1ccc(C=Cc2cc3cc(Cl)ccc3o2)cc1 [Compound 30, 5-chloro-2-(4-methylaminostyryl)benzofuran]
- inhibition at 10 µM (experiment of Table 6): 68.4%
- IC50 (experiment of Table 6): 2170 nM
- % inhibition against the beta-amyloid 42 formation compared with curcumin: superior % inhibition

Structure (SMILES): CN(C)c1ccc(C=Cc2cc3ccc(Br)cc3o2)cc1 [Compound 14, 6-bromo-2-(4-dimethylaminostyryl)benzofuran]
- IC50 (experiment of Table 1): 1340 nM

Structure (SMILES): Cc1ccc2cc(C=Cc3ccc(N)cc3)oc2c1 [Compound 61, 6-methyl-2-(4-aminostyryl)benzofuran trifluoroacetate]
- inhibition at 10 µM (experiment of Table 3): 57.5%

Structure (SMILES): CN(C)c1ccc(C=Cc2cc3cc(Br)ccc3o2)cc1 [Compound 7, 5-bromo-2-(4-dimethylaminostyryl)benzofuran]
- IC50 (experiment of Table 1): 470 nM
- % inhibition against the beta-amyloid 42 formation compared with curcumin: superior % inhibition

Structure (SMILES): COc1ccc2cc(C=Cc3ccc(N)cc3)oc2c1 [Compound 20, 6-methoxy-2-(4-aminostyryl)benzofuran]
- IC50 (experiment of Table 1): 5440 nM

Structure (SMILES): CNc1ccc(C=Cc2cc3ccc(OC)cc3o2)cc1 [Compound 21, 6-methoxy-2-(4-methylaminostyryl)benzofuran]
- IC50 (experiment of Table 1): 800 nM

Structure (SMILES): CNc1ccc(C=Cc2cc3ccc(C)cc3o2)cc1 [Compound 62, 6-methyl-2-(4-methylaminostyryl)benzofuran trifluoroacetate]
- inhibition at 10 µM (experiment of Table 3): 46.5%

Structure (SMILES): CNc1ccc(C=Cc2cc3cc(I)ccc3o2)cc1 [Compound 46, 5-iodo-2-(4-methylaminostyryl)benzofuran]
- inhibition at 10 µM (experiment of Table 6): 61%
- IC50 (experiment of Table 6): 1770 nM
- % inhibition against the beta-amyloid 42 formation compared with curcumin: superior % inhibition

Structure (SMILES): CN(C)c1ccc(C=Cc2cc3cc(Cl)ccc3o2)cc1 [Compound 6, 5-chloro-2-(4-dimethylaminostyryl)benzofuran]
- IC50 (experiment of Table 1): 199 nM
- % inhibition against the beta-amyloid 42 formation compared with curcumin: superior % inhibition

Structure (SMILES): Cc1ccc2cc(C=Cc3ccc(N(C)C)cc3)oc2c1 [Compound 11, 6-methyl-2-(4-dimethylaminostyryl)benzofuran]
- IC50 (experiment of Table 1): 3440 nM

Structure (SMILES): COc1ccc(C=Cc2cc3cc(C)ccc3o2)cc1OC [Compound 43, 5-methyl-2-(3,4-dimethoxystyryl)benzofuran]
- inhibition at 10 µM (experiment of Table 2): 69.4%
- IC50 (experiment of Table 2): 10500 nM

Structure (SMILES): Nc1ccc(C=Cc2cc3cc(Cl)ccc3o2)cc1 [Compound 29, 5-chloro-2-(4-aminostyryl)benzofuran]
- inhibition at 10 µM (experiment of Table 4): 82.8%
- IC50 (experiment of Table 4): 1990 nM

Structure (SMILES): CNc1ccc(C=Cc2cc3cc(OCCOCCOCCF)ccc3o2)cc1 [Compound 45, 5-(2-(2-(2-fluoroethoxy)ethoxy)ethoxy)-2-(4-methylaminostyryl)benzofuran]
- inhibition at 10 µM (experiment of Table 5): 53.5%

Structure (SMILES): CNc1ccc(C=Cc2cc3cc(Cl)ccc3o2)cc1OC [Compound 32, 5-chloro-2-(3-methoxy-4-methylaminostyryl)benzofuran]
- inhibition at 10 µM (experiment of Table 5): 47.6%

Structure (SMILES): COc1cc2cc(C=Cc3ccc(N(C)C)cc3)oc2cc1OC [Compound 51, 5,6-dimethoxy-2-(4-dimethylaminostyryl)benzofuran]
- inhibition at 10 µM (experiment of Table 5): 29.2%

Structure (SMILES): CN(C)c1ncc(/C=C/c2nc3ccccc3o2)s1 [Comparative Example 1, reference compound]
- inhibition at 10 µM (experiment of Table 7): 63.4%
- IC50 (experiment of Table 7): 3400 nM

Structure (SMILES): CCN(CC)c1ccc(C=Cc2cc3cc(I)ccc3o2)cc1 [Compound 47, 5-iodo-2-(4-diethylaminostyryl)benzofuran]
- inhibition at 10 µM (experiment of Table 5): 63.3%
- IC50 (experiment of Table 5): 1050 nM
- % inhibition against the beta-amyloid 42 formation compared with curcumin: superior % inhibition

Structure (SMILES): CN(C)c1ccc(C=Cc2cc3ccc(O)cc3o2)cc1 [Compound 10, 6-hydroxy-2-(4-dimethylaminostyryl)benzofuran]
- IC50 (experiment of Table 1): 3620 nM

Structure (SMILES): CNc1ccc(C=Cc2cc3cc(C)ccc3o2)cc1 [Compound 40, 5-methyl-2-(4-methylaminostyryl)benzofuran trifluoroacetate]
- inhibition at 10 µM (experiment of Table 3): 70.2%
- inhibition at 10 µM (experiment of Table 6): 73.5%
- IC50 (experiment of Table 6): 5050 nM

Structure (SMILES): CCN(CC)c1ccc(C=Cc2cc3ccccc3o2)cc1 [Compound 26, 2-(4-diethylaminostyryl)benzofuran]
- inhibition at 10 µM (experiment of Table 3): 4.54%

Structure (SMILES): CCN(CC)c1ccc(C=Cc2cc3cc(OC)ccc3o2)cc1 [Compound 35, 5-methoxy-2-(4-diethylaminostyryl)benzofuran]
- inhibition at 10 µM (experiment of Table 2): 55.1%
- IC50 (experiment of Table 2): 1180 nM

Structure (SMILES): CCN(CC)c1ccc(C=Cc2cc3cc(OC)c(OC)cc3o2)cc1 [Compound 52, 5,6-dimethoxy-2-(4-diethylaminostyryl)benzofuran]
- inhibition at 10 µM (experiment of Table 5): 42.3%

Structure (SMILES): CNc1ccc(/C=C/c2cc3cc(OC)ccc3o2)cc1 [hydrochloride of Ex. 17]
- inhibition at 10 µM (experiment of Table 6): 74.1%
- IC50 (experiment of Table 6): 661 nM
- % inhibition against the beta-amyloid 42 formation compared with curcumin: superior % inhibition

Structure (SMILES): CCN(CC)c1ccc(C=Cc2cc3cc(C)ccc3o2)cc1 [Compound 41, 5-methyl-2-(4-diethylaminostyryl)benzofuran]
- inhibition at 10 µM (experiment of Table 3): < 1%

Structure (SMILES): CNc1ccc(C=Cc2cc3cc(OCCOCCF)ccc3o2)cc1 [Compound 44, 5-(2-(2-fluoroethoxy)ethoxy)-2-(4-methylaminostyryl)benzofuran]
- inhibition at 10 µM (experiment of Table 6): 84.7%
- IC50 (experiment of Table 6): 1490 nM
- % inhibition against the beta-amyloid 42 formation compared with curcumin: superior % inhibition
